In ChEMBL document CHEMBL5537159, “Discovery and SAR of JTE-151: A Novel RORγ Inhibitor for Clinical Development” (J Med Chem, 2024):
Active and inactive are the calls of the source. No cut-off for these calls is given here.

Experiments:
[1] = Selectivity ratio of agonist activity at human FXR to inhibition of RORgamma (unknown origin)
[2] = AUClast in human at 600 mg/kg, po administered as single dose and measured upto 144 hrs; format: ADME, organism-based; conditions: in vivo
[3] = Elimination half life in CD(SD) rat at 1 mg/kg, iv administered as single dose and measured after 24 hrs; format: ADME, organism-based; conditions: in vivo, read-out: beta t1/2 (converted)
[4] = AUClast in human at 60 mg/kg, po administered as single dose and measured upto 144 hrs; format: ADME, organism-based; conditions: in vivo
[5] = molecular target: Amine oxidase [flavin-containing] B (Homo sapiens, UniProt P27338); assay: Inhibition of human MAO-B
[6] = Elimination half life in Beagle dog at 1 mg/kg, iv administered as single dose and measured after 24 hrs; format: ADME, organism-based, Canis lupus familiaris; conditions: in vivo, read-out: beta t1/2 (converted)
[7] = Genotoxicity in Salmonella typhimurium TA100 at 23 to 750 ug in presence of S9 fraction by bacterial reverse mutation test; format: toxicity, subcellular, Salmonella enterica subsp. enterica serovar Typhimurium; conditions: dose 23-750 µg
[8] = Selectivity ratio of antagonist activity at human RORbeta to inhibition of RORgamma (unknown origin)
[9] = Toxicity in Beagle dog assessed as development-limiting toxicity at 30 to 100 mg/kg, po administered once daily and measured on day 1,14 and 28; format: organism-based, Canis lupus familiaris; conditions: in vivo, 672 h, dose 30-100 mg/kg, time 28 day
[10] = molecular target: Prostaglandin G/H synthase 1 (Ovis aries, UniProt P05979); assay: Inhibition of ovine cox-1
Chain of Prostaglandin G/H synthase 1 (P05979 whole entry): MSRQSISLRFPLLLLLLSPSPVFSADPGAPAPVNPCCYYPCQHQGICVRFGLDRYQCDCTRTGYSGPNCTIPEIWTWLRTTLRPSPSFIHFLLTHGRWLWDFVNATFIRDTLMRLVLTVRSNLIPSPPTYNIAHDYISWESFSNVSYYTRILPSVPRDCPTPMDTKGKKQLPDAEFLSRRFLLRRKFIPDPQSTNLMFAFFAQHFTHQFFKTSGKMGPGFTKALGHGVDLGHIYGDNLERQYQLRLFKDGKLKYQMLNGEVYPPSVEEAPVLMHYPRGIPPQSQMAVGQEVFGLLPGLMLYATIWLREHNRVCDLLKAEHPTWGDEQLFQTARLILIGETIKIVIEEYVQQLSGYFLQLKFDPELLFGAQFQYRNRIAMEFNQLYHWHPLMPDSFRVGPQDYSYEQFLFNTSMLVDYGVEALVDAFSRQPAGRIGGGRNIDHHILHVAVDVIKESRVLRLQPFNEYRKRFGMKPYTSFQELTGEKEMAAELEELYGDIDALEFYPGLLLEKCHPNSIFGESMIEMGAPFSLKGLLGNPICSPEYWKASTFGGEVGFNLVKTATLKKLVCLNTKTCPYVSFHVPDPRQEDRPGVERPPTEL

[11] = Selectivity ratio of agonist activity at human RARalpha to inhibition of RORgamma (unknown origin)
[12] = MRT in CD(SD) rat at 10 mg/kg, po administered as single dose and measured after 24 hrs; format: ADME, organism-based; conditions: in vivo
[13] = Elimination half life in human at 600 mg/kg, po administered as single dose and measured upto 144 hrs; format: ADME, organism-based; conditions: in vivo, read-out: beta t1/2 (converted)
[14] = molecular target: Voltage-gated inwardly rectifying potassium channel KCNH2 (Homo sapiens, UniProt Q12809); assay: Inhibition of hERG transfected in HEK293 cells by whole cell patch-clamp method; format: toxicity, cell-based
Chain of Voltage-gated inwardly rectifying potassium channel KCNH2 (Q12809 whole entry): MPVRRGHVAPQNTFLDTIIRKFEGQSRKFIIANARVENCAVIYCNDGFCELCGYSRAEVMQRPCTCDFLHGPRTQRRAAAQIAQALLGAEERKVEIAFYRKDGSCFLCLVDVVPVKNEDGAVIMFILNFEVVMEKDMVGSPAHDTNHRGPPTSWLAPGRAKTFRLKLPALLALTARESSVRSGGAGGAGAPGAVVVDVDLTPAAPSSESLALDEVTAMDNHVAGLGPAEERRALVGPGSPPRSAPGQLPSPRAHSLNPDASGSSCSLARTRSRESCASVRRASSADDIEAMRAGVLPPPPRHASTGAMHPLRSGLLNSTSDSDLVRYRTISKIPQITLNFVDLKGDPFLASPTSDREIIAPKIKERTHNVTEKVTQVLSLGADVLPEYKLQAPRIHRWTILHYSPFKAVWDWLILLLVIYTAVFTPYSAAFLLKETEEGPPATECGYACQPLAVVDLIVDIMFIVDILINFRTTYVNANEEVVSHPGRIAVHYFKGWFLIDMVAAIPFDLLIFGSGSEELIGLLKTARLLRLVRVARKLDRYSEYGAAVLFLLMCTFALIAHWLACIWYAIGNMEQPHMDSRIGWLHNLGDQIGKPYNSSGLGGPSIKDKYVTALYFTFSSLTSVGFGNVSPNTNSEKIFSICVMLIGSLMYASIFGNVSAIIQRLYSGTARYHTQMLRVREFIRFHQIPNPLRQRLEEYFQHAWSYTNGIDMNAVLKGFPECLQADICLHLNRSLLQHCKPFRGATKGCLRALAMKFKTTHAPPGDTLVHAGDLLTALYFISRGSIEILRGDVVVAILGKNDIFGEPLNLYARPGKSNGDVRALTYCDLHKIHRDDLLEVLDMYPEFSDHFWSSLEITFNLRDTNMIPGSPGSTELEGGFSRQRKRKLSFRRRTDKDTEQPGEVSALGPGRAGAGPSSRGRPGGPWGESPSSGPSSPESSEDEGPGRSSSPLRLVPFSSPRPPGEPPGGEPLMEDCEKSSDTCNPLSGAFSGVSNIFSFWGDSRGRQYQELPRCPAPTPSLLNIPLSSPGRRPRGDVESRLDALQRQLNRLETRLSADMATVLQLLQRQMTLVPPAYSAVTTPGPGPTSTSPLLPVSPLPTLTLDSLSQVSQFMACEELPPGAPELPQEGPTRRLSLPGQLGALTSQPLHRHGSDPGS

[15] = molecular target: Adrenergic receptor alpha-2 (Rattus norvegicus, UniProt P22086+P19328+P22909); assay: Inhibition of rat adrenergic alpha2 receptor; format: protein assay
[16] = Volume of distribution at steady state in C57BL/6J mouse at 1 mg/kg, iv administered as single dose and measured after 24 hrs; format: ADME, organism-based; conditions: in vivo, read-out: Vdss
Cytochrome P450 2D6 = Cytochrome P450 2D6 (Homo sapiens, UniProt P10635); assay: Inhibition of CYP2D6 in human liver microsomes; format: ADME, Microsome
Chain of Cytochrome P450 2D6 (P10635 whole entry): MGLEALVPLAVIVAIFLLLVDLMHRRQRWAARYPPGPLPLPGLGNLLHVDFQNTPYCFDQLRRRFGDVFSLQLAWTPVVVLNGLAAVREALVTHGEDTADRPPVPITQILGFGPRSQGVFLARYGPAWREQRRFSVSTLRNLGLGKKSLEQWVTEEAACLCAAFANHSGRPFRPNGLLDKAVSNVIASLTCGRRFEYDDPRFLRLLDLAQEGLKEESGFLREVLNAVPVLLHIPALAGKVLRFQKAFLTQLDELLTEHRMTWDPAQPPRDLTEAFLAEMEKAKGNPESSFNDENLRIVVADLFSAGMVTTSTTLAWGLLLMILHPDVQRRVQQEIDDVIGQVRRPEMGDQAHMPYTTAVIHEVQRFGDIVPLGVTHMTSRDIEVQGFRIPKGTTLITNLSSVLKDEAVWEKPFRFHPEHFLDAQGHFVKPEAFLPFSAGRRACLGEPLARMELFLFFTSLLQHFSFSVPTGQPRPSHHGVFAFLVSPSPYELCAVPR

[17] = Selectivity ratio of antagonist activity at human PPARgamma to inhibition of RORgamma (unknown origin)
[18] = molecular target: 5-hydroxytryptamine receptor 1A (Homo sapiens, UniProt P08908); assay: Inhibition of human 5-HT1A receptor
Chain of 5-hydroxytryptamine receptor 1A (P08908 whole entry): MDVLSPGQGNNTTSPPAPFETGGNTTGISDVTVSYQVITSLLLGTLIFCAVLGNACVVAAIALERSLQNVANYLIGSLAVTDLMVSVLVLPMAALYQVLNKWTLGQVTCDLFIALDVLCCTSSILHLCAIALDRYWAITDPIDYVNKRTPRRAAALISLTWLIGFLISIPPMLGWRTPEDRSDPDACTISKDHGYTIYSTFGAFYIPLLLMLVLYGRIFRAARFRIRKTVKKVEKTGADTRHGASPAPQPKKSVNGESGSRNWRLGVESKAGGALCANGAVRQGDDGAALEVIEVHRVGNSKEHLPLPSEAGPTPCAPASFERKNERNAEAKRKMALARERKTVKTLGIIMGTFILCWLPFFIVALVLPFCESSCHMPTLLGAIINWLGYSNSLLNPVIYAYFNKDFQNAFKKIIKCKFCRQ

[19] = Elimination half life in human at 1600 mg/kg, po administered as single dose and measured upto 144 hrs; format: ADME, organism-based; conditions: in vivo, read-out: beta t1/2 (converted)
Cytochrome P450 3A4 = Cytochrome P450 3A4 (Homo sapiens, UniProt P08684); assay: Inhibition of CYP3A4 in human liver microsomes using testosterone as substrate; format: ADME, Microsome
Chain of Cytochrome P450 3A4 (P08684 whole entry): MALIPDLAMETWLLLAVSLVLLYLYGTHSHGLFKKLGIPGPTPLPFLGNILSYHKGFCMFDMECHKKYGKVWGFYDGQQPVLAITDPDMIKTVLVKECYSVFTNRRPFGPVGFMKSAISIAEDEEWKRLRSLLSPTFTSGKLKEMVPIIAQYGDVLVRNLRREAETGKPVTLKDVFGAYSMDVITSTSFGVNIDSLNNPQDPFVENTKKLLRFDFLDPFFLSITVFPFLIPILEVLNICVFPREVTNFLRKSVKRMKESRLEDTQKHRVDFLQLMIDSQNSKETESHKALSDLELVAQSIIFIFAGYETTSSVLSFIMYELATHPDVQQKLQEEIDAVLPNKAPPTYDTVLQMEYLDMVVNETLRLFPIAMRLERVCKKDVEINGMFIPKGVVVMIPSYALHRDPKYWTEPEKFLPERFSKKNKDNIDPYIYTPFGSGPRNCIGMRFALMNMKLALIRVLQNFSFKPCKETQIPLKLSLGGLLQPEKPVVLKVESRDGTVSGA

[20] = molecular target: Beta-1 adrenergic receptor (Homo sapiens, UniProt P08588); assay: Inhibition of human adrenergic beta1 receptor
Chain of Beta-1 adrenergic receptor (P08588 whole entry): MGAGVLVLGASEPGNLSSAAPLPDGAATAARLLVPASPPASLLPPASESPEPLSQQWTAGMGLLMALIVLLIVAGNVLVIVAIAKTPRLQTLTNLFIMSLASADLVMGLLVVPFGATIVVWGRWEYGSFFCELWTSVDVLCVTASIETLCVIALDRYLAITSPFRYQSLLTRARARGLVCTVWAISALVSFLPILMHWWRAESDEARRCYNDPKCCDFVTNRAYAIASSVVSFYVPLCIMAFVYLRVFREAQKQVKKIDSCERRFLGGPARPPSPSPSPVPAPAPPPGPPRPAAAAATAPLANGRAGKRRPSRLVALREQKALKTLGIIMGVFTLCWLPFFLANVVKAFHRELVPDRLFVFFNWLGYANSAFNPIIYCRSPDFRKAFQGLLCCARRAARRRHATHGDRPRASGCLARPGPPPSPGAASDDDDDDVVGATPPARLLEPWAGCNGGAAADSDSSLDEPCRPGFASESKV

[21] = Selectivity ratio of antagonist activity at human AR to inhibition of RORgamma (unknown origin)
[22] = AUClast in human at 1000 mg/kg, po administered as single dose and measured upto 144 hrs; format: ADME, organism-based; conditions: in vivo
[23] = Selectivity ratio of antagonist activity at human RARalpha to inhibition of RORgamma (unknown origin)
[24] = Total body clearance in C57BL/6J mouse at 1 mg/kg, iv administered as single dose and measured after 24 hrs; format: ADME, organism-based; conditions: in vivo
[25] = Genotoxicity in Salmonella typhimurium TA1535 at 188 to 5000 ug in presence of S9 fraction by bacterial reverse mutation test; format: toxicity, subcellular, Salmonella enterica subsp. enterica serovar Typhimurium; conditions: dose 188-5000 µg
[26] = Elimination half life in human at 1000 mg/kg, po administered as single dose and measured upto 144 hrs; format: ADME, organism-based; conditions: in vivo, read-out: beta t1/2 (converted)
[27] = Toxicity in CHL cells assessed as chromosomal aberration at 60 to 80 ug/ml incubated for 6 hrs in absence of S9 fraction; format: cell-based, Cricetulus griseus; conditions: chinese hamster, dose 60-80 µg/ml
[28] = Selectivity ratio of agonist activity at mouse LXRalpha to inhibition of RORgamma (unknown origin)
[29] = Apparent permeability in human Caco-2 cells at 25 umol/L incubated for 2 hrs by LC/MS/MS analysis; format: ADME, cell-based; conditions: dose 25 µmol/L
[30] = Cmax in human at 1600 […], po administered as single dose and measured upto 144 hrs; format: ADME, organism-based; conditions: in vivo
[31] = Selectivity ratio of antagonist activity at human FXR to inhibition of RORgamma (unknown origin)
[32] = Inhibition of rat K+ ATP channel
[33] = Inhibition of rat glutamate receptor
[34] = molecular target: Adrenergic receptor alpha-1 (Rattus norvegicus, UniProt P15823+P23944+P43140); assay: Inhibition of rat adrenergic alpha1 receptor; format: protein assay
Mus musculus = assay: Anti-inflammatory activity in complete Freund's adjuvant/MOG (35 to 55 residues)/pertussis toxin-induced experimental autoimmune encephalomyelitis C57BL/6 mouse model assessed as reduction in paralysis by measuring reduction in EAE clinical score at 3 to 10 mg/kg, po administered once daily for 17 days and measured on day 18; format: functional, organism-based; conditions: dose 3-10 mg/kg, time 18.0 day
[35] = Tmax in human at 30 […], po administered as single dose and measured upto 144 hrs; format: ADME, organism-based; conditions: in vivo
[36] = Selectivity ratio of agonist activity at human ERalpha to inhibition of RORgamma (unknown origin)
[37] = molecular target: Beta-3 adrenergic receptor (Homo sapiens, UniProt P13945); assay: Inhibition of human adrenergic beta3 receptor
Chain of Beta-3 adrenergic receptor (P13945 whole entry): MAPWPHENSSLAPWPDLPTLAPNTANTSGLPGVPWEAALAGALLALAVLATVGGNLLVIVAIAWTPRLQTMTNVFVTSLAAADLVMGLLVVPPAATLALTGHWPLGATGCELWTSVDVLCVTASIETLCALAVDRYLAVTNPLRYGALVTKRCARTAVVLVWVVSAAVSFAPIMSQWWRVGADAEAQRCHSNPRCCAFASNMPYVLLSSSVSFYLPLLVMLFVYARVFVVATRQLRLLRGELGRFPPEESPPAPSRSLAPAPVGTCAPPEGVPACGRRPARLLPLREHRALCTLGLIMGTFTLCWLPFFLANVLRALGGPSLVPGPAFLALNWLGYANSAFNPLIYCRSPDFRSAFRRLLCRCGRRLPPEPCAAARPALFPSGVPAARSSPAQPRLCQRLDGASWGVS

[38] = Total body clearance in cynomolgus monkey at 1 mg/kg, iv administered as single dose and measured after 24 hrs; format: ADME, organism-based, Macaca fascicularis; conditions: in vivo
[39] = Toxicity in Sprague-Dawley rat assessed as development-limiting toxicity at 30 to 300 mg/kg, po administered once daily and measured on day 1,14 and 27; format: organism-based; conditions: in vivo, 648 h, dose 30-300 mg/kg, time 27 day
[40] = Genotoxicity in Salmonella typhimurium TA98 at 23 to 750 ug in absence of S9 fraction by bacterial reverse mutation test; format: toxicity, Salmonella enterica subsp. enterica serovar Typhimurium; conditions: in vivo; dose 23-750 µg
Cytochrome P450 2C8 = Cytochrome P450 2C8 (Homo sapiens, UniProt P10632); assay: Inhibition of CYP2C8 in human liver microsomes; format: ADME, Microsome
Chain of Cytochrome P450 2C8 (P10632 whole entry): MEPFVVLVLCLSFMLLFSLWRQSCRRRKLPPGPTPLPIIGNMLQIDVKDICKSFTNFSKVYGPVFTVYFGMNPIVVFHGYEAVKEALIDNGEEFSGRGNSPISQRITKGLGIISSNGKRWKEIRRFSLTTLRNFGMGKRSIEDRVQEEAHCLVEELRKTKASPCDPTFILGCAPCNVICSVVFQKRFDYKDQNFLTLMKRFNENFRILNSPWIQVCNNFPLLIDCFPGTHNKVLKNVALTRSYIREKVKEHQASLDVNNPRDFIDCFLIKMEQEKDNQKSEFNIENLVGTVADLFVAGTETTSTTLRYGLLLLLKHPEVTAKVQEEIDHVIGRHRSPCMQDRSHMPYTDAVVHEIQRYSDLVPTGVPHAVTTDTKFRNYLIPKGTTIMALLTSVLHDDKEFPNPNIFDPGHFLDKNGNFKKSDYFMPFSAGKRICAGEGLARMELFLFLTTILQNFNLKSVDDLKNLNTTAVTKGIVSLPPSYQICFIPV

[41] = AUClast in human at 30 mg/kg, po administered as single dose and measured upto 144 hrs; format: ADME, organism-based; conditions: in vivo
[42] = Elimination half life in human at 60 mg/kg, po administered as single dose and measured upto 144 hrs; format: ADME, organism-based; conditions: in vivo, read-out: beta t1/2 (converted)
D(1A) dopamine receptor = D(1A) dopamine receptor (Homo sapiens, UniProt P21728); assay: Inhibition of human dopamine D1 receptor
Chain of D(1A) dopamine receptor (P21728 whole entry): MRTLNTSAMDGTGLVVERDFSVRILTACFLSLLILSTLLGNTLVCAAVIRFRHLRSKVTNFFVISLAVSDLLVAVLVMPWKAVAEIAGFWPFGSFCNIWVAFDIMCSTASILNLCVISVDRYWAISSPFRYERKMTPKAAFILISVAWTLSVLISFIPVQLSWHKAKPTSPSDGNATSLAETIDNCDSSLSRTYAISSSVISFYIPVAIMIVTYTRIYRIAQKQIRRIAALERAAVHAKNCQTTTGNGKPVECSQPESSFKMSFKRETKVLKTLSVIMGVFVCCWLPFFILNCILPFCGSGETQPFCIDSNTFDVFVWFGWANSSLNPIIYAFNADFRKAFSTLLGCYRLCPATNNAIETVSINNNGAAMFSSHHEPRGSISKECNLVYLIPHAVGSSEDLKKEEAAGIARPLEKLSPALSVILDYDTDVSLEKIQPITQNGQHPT

[43] = Inhibition of rat opioid receptor
[44] = Selectivity ratio of antagonist activity at human PPARalpha to inhibition of RORgamma (unknown origin)

With `Cc1ccc(NC(=O)C[C@H](CCC(=O)O)c2noc([C@H]3C[C@@H](CC(C)(C)C)C3)c2C2CC2)c(Cl)c1` the Selectivity ratio [1] was > 100, the AUC(0-t) at 144 h [2] was 140000 ng·h/mL and the half-life [3] was 3 h. The AUC(0-t) at 144 h [4] was 11000 ng·h/mL, the IC50 [5] was > 10 µM and the half-life [6] was 5.5 h. The Activity [7] was “Non-Toxic”, the Selectivity ratio [8] was > 100 and the Activity [9] was “Non-Toxic”. The IC50 [10] was > 10 µM, the Selectivity ratio [11] was > 100 and the MRT [12] was 5.6 h. The half-life [13] was 7.33 h, the IC50 [14] was 7.4 µM and the IC50 [15] was > 10 µM. The Vd [16] was 0.16 L/kg, the IC50 (Cytochrome P450 2D6) was > 10 µM and the Selectivity ratio [17] was > 100. For the same molecule, the IC50 [18] was > 10 µM, the half-life [19] was 10.7 h and the IC50 (Cytochrome P450 3A4) was > 10 µM. The IC50 [20] was > 10 µM, the Selectivity ratio [21] was > 100 and the AUC(0-t) at 144 h [22] was 241000 ng·h/mL. The Selectivity ratio [23] was > 100, the clearance [24] was 0.5 mL/min/kg and the Activity [25] was “Non-Toxic”. The half-life [26] was 7.91 h, the Activity [27] was “Non-Toxic” and the Selectivity ratio [28] was > 100. For the same molecule, the Papp at 2 h, 25 µM [29] was 22.3 ×10⁻⁶ cm/s, the Cmax [30] was 60.7 µg/mL and the Selectivity ratio [31] was > 100. The IC50 [32] was > 10 µM, the IC50 [33] was > 10 µM and the IC50 [34] was > 10 µM. For the same molecule, the Activity (Mus musculus) was “Active”, the Tmax [35] was 2.77 h and the Selectivity ratio [36] was > 100. The IC50 [37] was > 10 µM, the clearance [38] was 3.17 mL/min/kg and the Activity [39] was “Non-Toxic”. The Activity [40] was “Non-Toxic”, the IC50 (Cytochrome P450 2C8) was 6.8 µM and the AUC(0-t) at 144 h [41] was 6030 ng·h/mL. For the same molecule, the half-life [42] was 5.49 h, the IC50 (D(1A) dopamine receptor) was 6.2 µM and the IC50 [43] was > 10 µM. For the same molecule, the Selectivity ratio [44] was > 100.
